One assay concerns the target T1, human TLR7 (Homo sapiens, UniProt Q9NYK1).
T1 construct: host or cells: HEK-Blue hTLR7 (HEK293-derived reporter cells)
T1 sequence (Q9NYK1 27-1049): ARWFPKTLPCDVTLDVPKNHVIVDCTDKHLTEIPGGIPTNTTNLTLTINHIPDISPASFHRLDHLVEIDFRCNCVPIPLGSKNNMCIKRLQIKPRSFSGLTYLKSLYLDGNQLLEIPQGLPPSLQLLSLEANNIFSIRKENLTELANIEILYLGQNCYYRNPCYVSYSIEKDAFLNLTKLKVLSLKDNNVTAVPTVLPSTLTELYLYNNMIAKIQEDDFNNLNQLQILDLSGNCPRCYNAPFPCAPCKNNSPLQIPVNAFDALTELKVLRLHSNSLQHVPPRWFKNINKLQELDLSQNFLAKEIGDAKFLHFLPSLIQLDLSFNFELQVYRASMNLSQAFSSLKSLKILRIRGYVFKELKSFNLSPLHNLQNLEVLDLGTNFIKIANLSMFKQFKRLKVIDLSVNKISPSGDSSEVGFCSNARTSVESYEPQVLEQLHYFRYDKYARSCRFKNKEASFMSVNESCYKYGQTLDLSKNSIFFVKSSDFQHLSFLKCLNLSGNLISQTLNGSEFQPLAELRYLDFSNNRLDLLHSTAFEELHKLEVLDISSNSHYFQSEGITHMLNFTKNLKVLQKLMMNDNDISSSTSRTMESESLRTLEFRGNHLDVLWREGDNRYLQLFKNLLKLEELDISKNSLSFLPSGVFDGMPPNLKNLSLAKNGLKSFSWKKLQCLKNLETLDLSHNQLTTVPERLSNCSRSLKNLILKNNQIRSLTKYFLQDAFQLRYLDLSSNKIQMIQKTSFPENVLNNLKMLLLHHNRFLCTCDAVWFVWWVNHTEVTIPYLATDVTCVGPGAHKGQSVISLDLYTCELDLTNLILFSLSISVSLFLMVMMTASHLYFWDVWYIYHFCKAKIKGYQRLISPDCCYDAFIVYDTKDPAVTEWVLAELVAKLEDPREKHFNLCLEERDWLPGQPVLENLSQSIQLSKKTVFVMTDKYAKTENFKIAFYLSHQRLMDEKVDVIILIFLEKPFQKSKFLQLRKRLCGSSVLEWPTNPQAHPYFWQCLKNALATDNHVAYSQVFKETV
The assay can be described thus: HEK-Blue hTLR7 SEAP reporter gene agonist assay. In kind it is cell-based. The following applies: HEK-Blue hTLR7 cells, 16 to 22 hours incubation. As to the method:
(§1) HEK-Blue™ cells that stably express human TLR7 or TLR8 are used to evaluate the agonistic activity of the compounds on TLR7 or TLR8, which is determined by the induction of the expression of SEAP reporter gene under the control of minimum IFN-β promoter fusion to 5×NF-κB and AP-1 binding sites. The assay is conducted as below:
(§2) HEK-Blue™ hTLR7 (Invivogen, 80,000 cells per well) or HEK-Blue™ hTLR8 (Invivogen, 60,000 cells per well) were added to the 96-well cell culture plate, followed by adding of the test compound. The final concentration of the test compound in the medium ranged from […], and was incubated for 16 to 22 hours. According to the manufacturer's instructions, the HEK-Blue assay reagent Quanti-blue (Invivogen) was used to measure SEAP levels in cell media. Optical density at 650 nm (OD650) was measured by Neo2 multifunction plate reader (Bio-tek). The half effective concentration (EC50) was calculated using GraphPad Prism.
For orientation: Reporter assays use an easily measured gene product as a stand-in for the process of interest.

For the next assay, the target named is T2, human TLR8 (Homo sapiens, UniProt Q9NR97).
T2 construct: host or cells: HEK-Blue hTLR8 (HEK293-derived reporter cells)
T2 sequence (Q9NR97 27-1041): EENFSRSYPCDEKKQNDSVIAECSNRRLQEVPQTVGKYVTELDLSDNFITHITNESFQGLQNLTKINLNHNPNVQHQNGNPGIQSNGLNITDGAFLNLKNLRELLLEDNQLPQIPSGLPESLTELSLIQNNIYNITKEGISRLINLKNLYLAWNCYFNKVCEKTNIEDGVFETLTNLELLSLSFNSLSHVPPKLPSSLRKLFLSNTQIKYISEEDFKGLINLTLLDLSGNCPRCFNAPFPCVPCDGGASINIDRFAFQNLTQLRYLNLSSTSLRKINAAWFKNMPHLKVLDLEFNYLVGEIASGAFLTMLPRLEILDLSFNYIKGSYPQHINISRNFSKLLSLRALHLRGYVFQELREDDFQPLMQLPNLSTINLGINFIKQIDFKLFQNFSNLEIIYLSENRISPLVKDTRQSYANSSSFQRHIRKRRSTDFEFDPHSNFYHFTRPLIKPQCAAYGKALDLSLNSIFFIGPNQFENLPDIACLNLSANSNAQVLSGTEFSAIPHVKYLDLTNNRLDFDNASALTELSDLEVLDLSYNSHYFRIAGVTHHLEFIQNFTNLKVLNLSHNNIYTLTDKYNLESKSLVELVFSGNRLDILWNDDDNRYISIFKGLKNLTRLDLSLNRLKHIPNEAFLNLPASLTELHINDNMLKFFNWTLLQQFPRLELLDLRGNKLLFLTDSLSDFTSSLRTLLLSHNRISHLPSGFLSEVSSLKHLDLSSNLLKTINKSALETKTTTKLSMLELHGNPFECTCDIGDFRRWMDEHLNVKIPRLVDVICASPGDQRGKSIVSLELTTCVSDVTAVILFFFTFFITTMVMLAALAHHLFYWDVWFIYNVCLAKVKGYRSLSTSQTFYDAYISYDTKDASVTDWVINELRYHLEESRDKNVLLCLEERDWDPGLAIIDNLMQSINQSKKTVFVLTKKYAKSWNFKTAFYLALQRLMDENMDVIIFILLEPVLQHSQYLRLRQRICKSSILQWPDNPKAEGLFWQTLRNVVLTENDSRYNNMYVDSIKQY
The assay can be described thus: HEK-Blue hTLR8 SEAP reporter gene agonist assay. In kind it is cell-based. To be noted: HEK-Blue hTLR8 cells, 16 to 22 hours incubation. How it is done: as §1, §2

The term EC50 denotes the midpoint of the concentration-response curve. Low values mean an effect from little substance, high ones a need for much substance. For `CCCCNc1nc(N)nc2ccn(Cc3ccc(C(=O)N4C5CNCC4C5)cc3)c(=O)c12` [Compound I-65, 6-(4-(3,6-diazabicyclo[3.1.1]heptane-6-carbonyl)benzyl)-2-amino-4-(butylamino)pyri do[4,3-d]pyrimidin-5(6H)-one], the values for the EC50 at human TLR7 and on human TLR8 were 203 nM and 64 nM, respectively.

`CCC[C@@H](C)Nc1nc(N)nc2ccn(Cc3ccc(C(=O)N4CC5CC(C4)N5)cc3)c(=O)c12` [Compound I-151, 6-(4-(3,6-diazabicyclo[3.1.1]heptane-3-carbonyl)benzyl)-2-amino-4-(((R)-pentan-2-yl)amino)pyrido[4,3-d]pyrimidin-5(6H)-one]: the EC50 at human TLR7 is 80 nM; on human TLR8, 30 nM.

Take `CCCCNc1nc(N)nc2ccn(Cc3ccc(CN4CCCC4)cc3)c(=O)c12` [Compound I-1, 2-amino-4-(butylamino)-6-(4-(pyrrolidin-1-ylmethyl)benzyl)pyrido[4,3-d]pyrimidin-5(6H)-one]: the EC50 was found to be 81 nM on human TLR7 and 58 nM on human TLR8.

Turning to `CCCCNc1nc(N)nc2ccn(Cc3ccc(C(=O)N4CCN(C(C)C)CC4)cc3)c(=O)c12` [Compound I-53, 2-amino-4-(butylamino)-6-(4-(4-isopropylpiperazine-1-carbonyl)benzyl)pyrido[4,3-d]pyrimidin-5(6H)-one], the results for the EC50 at human TLR7 and on human TLR8 were 61 nM and 92 nM, respectively.

Take `CCCC(CCC)Nc1nc(N)nc2ccn(Cc3ccc(C(=O)N4CCNCC4)cc3OC)c(=O)c12` [Compound I-132, 2-amino-4-(heptan-4-ylamino)-6-(2-methoxy-4-(piperazine-1-carbonyl)benzyl)pyrido[4,3-d]pyrimidin-5(6H)-one]: the EC50 at human TLR7 turned out to be 84 nM; at human TLR8, 660 nM.

With `CCCCNc1nc(N)nc2ccn(Cc3ccc(C(=O)N4CCN(C)CC4)c(OC)c3)c(=O)c12` [Compound I-79, 2-amino-4-(butylamino)-6-(3-methoxy-4-(4-methylpiperazine-1-carbonyl)benzyl)pyrido[4,3-d]pyrimidin-5(6H)-one], the EC50 is 87 nM on human TLR7 and 105 nM on human TLR8.

Regarding `CCC[C@@H](CO)Nc1nc(N)nc2ccn(Cc3ccc(CN(C)C)cc3OC)c(=O)c12` [Compound I-195, (S)-2-amino-6-(4-((dimethylamino)methyl)-2-methoxybenzyl)-4-((1-hydroxypentan-2-yl)amino)pyrido[4,3-d]pyrimidin-5(6H)-one], the EC50 on human TLR7 amounted to 31 nM; on human TLR8, 1 nM.

For `CCC[C@@H](CO)Nc1nc(N)nc2ccn(Cc3ccc(CN4CCCC4)cc3Cl)c(=O)c12` [Compound I-168, (S)-2-amino-6-(2-chloro-4-(pyrrolidin-1-ylmethyl)benzyl)-4-((1-hydroxypentan-2-yl)amino)pyrido[4,3-d]pyrimidin-5(6H)-one], the EC50 at human TLR7 is 40 nM; on human TLR8 it was 10 nM.

In the case of `CCCCNc1nc(N)nc2ccn(Cc3ccc(CN4CC5(COC5)C4)cc3)c(=O)c12` [Compound I-52, 6-(4-((2-oxa-6-azaspiro[3.3]heptan-6-yl)methyl)benzyl)-2-amino-4-(butylamino)pyri do[4,3-d]pyrimidin-5(6H)-one], the EC50 is 83 nM at human TLR7 and 56 nM at human TLR8.

`CCC[C@@H](C)Nc1nc(N)nc2ccn(Cc3ccc(C(=O)N4CCN(C(C)C)CC4)cc3OC)c(=O)c12` [Compound I-183, (R)-2-amino-6-(4-(4-isopropylpiperazine-1-carbonyl)-2-methoxybenzyl)-4-(pentan-2-ylamino)pyrido[4,3-d]pyrimidin-5(6H)-one]: the EC50 on human TLR7 is 91 nM; at human TLR8 it was 83 nM.

For the molecule `CCC[C@@H](C)Nc1nc(N)nc2ccn(Cc3ccc(CN(C)CCO)cc3)c(=O)c12` [Compound I-139, (R)-2-amino-6-(4-(((2-hydroxyethyl)(methyl)amino)methyl)benzyl)-4-(pentan-2-ylamino)pyrido[4,3-d]pyrimidin-5(6H)-one], the values for the EC50 on human TLR7 and on human TLR8 were 30 nM and 20 nM, respectively.

Regarding `CCCCNc1nc(N)nc2ccn(Cc3ccc(CN(CCC)CCO)cc3)c(=O)c12` [Compound I-98, 2-amino-4-(butylamino)-6-(4-(((2-hydroxyethyl)(propyl)amino)methyl)benzyl)pyrido[4,3-d]pyrimidin-5(6H)-one], the EC50 on human TLR7 amounted to 101 nM; at human TLR8, 85 nM.

Consider `CCCCNc1nc(N)nc2ccn(Cc3ccc(CN(C)C)cc3)c(=O)c12` [Compound I-35, 2-amino-4-(butylamino)-6-(4-((dimethylamino)methyl)benzyl)pyrido[4,3-d]pyrimidin-5(6H)-one], for which the values for the EC50 on human TLR7 and at human TLR8 were 87 nM and 58 nM, respectively.

As for `CCC[C@@H](CCO)Nc1nc(N)nc2ccn(Cc3ccc(CN4CCCC4)cc3)c(=O)c12` [Compound I-118, (S)-2-amino-4-((1-hydroxyhexan-3-yl)amino)-6-(4-(pyrrolidin-1-ylmethyl)benzyl)pyrido[4,3-d]pyrimidin-5(6H)-one], the values for the half-maximal effective concentration (EC50) at human TLR7 and at human TLR8 were 40 nM and 52 nM, respectively.

In the case of `CCCC[C@@H](CO)Nc1nc(N)nc2ccn(Cc3ccc(CN4CCCC4)cc3OC)c(=O)c12` [Compound I-164, (S)-2-amino-4-((1-hydroxyhexan-2-yl)amino)-6-(2-methoxy-4-(pyrrolidin-1-ylmethyl)benzyl)pyrido[4,3-d]pyrimidin-5(6H)-one], the results for the EC50 on human TLR7 and on human TLR8 were 40 nM and 30 nM, respectively.

For `CCC[C@@H](C)Nc1nc(N)nc2ccn(Cc3ccc(CN4CCNCC4)cc3OC)c(=O)c12` [Compound I-184, (R)-2-amino-6-(2-methoxy-4-(piperazin-1-ylmethyl)benzyl)-4-(pentan-2-ylamino)pyrido[4,3-d]pyrimidin-5(6H)-one], the EC50 on human TLR7 was 96 nM; at human TLR8 it was 107 nM.

With `CCC[C@@H](C)Nc1nc(N)nc2ccn(Cc3ccc(C(=O)N4CCNCC4)cc3)c(=O)c12` [Compound I-117, (R)-2-amino-4-(pentan-2-ylamino)-6-(4-(piperazine-1-carbonyl)benzyl)pyrido[4,3-d]pyrimidin-5(6H)-one], the figures for the EC50 at human TLR7 and on human TLR8 were 55 nM and 49 nM, respectively.

Source of the values: patent US20250059183A1, “PYRIDINE[4,3-D]PYRIMIDINE COMPOUND AS TLR7/8 AGONIST” (SHANGHAI VISONPHARMA CO., LTD., priority 2021, published 2025).
